The values that follow come from patent US12312419B2, “Hemiasterlin derivative having cysteine residue” (priority 2019, dated 2025).

pIC50: −log10 of the molar value.

The test system of one test is Karpas-299 cells. In words: Cellular toxicity test (1), CellTiter-Glo cell viability. In kind it is cell-based, human. Particulars: Homo sapiens, 96 h; Karpas-299; cultured 4 days; cell viability. Here is the method: Karpas-299 cells (European Collection of Authenticated Cell Cultures, hereinafter, ECACC), which are human lymphoma cell lines, were cultured in RPMI 1640 (GIBCO) containing 10% fetal bovine serum (MP Biomedicals) (hereinafter, referred to as the “culture medium”). Cells were prepared to be 2×10^5 cells/mL in the culture medium, and were added to a 96 well microplate for cell culturing in an amount of 50 μL for each well. Compounds of Examples or the Comparative Example compound 4 times diluted with the culture medium in 8 stages were added to the microplate in an amount of 50 μL for each well. These were cultured at 37° C. under 5% CO2 for 4 days. After culturing, the microplate was taken out from the incubator, and was left at rest at room temperature for 10 minutes. To each well, 50 μL of CellTiter-Glo Luminescent Cell Viability Assay (Promega) was added, and the resultant mixture was stirred. This mixture was incubated at a dark place for 20 minutes. Using a microplate luminometer, luminescence at each well was measured, thereby calculating the cell viability. From the value of the cell viability, the IC50 value was calculated.
The IC50 value was calculated by the following formula: IC50(nM)=antilog(LOG10(a/b)×(e−d)/(c−d)+LOG10b) • a: concentration a of test substance • b: concentration b of test substance • c: cell viability upon adding test substance with concentration a • d: cell viability upon adding test substance with concentration b • e: intermediate value between maximum and minimum among cell viabilities upon adding test substances with different concentrations (a and b are concentrations crossing the cell viability e, and a>b is indicated).
The cell viability at each concentration was calculated by the following formula: Cell Viability (%)=a′/b′×100 • a′: mean value of luminescence amount of wells to which test substance was added (n=6) • b′: mean value of luminescence amount of wells to which test substance was not added (n=6) • (n represents the number of evaluations performed per test substance concentration).
A general note: Cellular ATP, detected with luciferase, serves as a proxy for viable cell number.
Consider `CN[C@H](C(=O)N[C@H](C(=O)N(C)[C@H](/C=C(\C)C(=O)N[C@H](CCC(=O)N[C@@H](CCCCNC(=O)CCCCCN1C(=O)CC(SC[C@H](N)C(=O)O)C1=O)C(=O)O)C(=O)O)C(C)C)C(C)(C)C)C(C)(C)c1cn(C)c2ccccc12` (some centres unmarked) [Example MM2], for which the pIC50 (usually −log10 of the IC50, conventionally taken in molar units) is 6.34.
On the same count and under the same terms, with `CN[C@H](C(=O)N[C@H](C(=O)N(C)[C@H](/C=C(\C)C(=O)N[C@H](CCC(=O)N[C@H](CCC(=O)NCCN1C(=O)CC(SC[C@H](N)C(=O)O)C1=O)C(=O)O)C(=O)O)C(C)C)C(C)(C)C)C(C)(C)c1cn(C)c2ccccc12` (some centres unmarked) [Example MM3] the figure was 6.41; with `CN[C@H](C(=O)N[C@H](C(=O)N(C)[C@H](/C=C(\C)C(=O)N[C@H](CCC(=O)NCCN1C(=O)CC(SC[C@H](N)C(=O)O)C1=O)C(=O)O)C(C)C)C(C)(C)C)C(C)(C)c1cn(C)c2ccccc12` (some centres unmarked) [Example MM4], 6.54.
Same read-out and setting: for `CN[C@H](C(=O)N[C@H](C(=O)N(C)[C@H](/C=C(\C)C(=O)NCCCC[C@@H](NC(=O)CCCN1C(=O)CC(SC[C@H](N)C(=O)O)C1=O)C(=O)O)C(C)C)C(C)(C)C)C(C)(C)c1cn(C)c2ccccc12` (some centres unmarked) [Example MM5] the value was < 6.00; for `CN[C@H](C(=O)N[C@H](C(=O)N(C)[C@H](/C=C(\C)C(=O)N[C@H](CCC(=O)N[C@H](CCC(=O)NCCN1C(=O)CC(SC[C@H](N)C(=O)O)C1=O)C(=O)O)C(=O)O)C(C)C)C(C)(C)C)C(C)(C)c1ccccc1` (some centres unmarked) [Example MM6], < 6.00.
For the molecule `CN[C@H](C(=O)N[C@H](C(=O)N(C)[C@H](/C=C(\C)C(=O)N[C@H](CCC(=O)N[C@H](CCC(=O)N[C@H](CCC(=O)NCCN1C(=O)CC(SC[C@H](N)C(=O)O)C1=O)C(=O)O)C(=O)O)C(=O)O)C(C)C)C(C)(C)C)C(C)(C)c1ccccc1` (some centres unmarked) [Example MM7], the pIC50 is < 6.00.
In the case of `CN[C@H](C(=O)N[C@H](C(=O)N(C)[C@H](/C=C(\C)C(=O)N[C@H](CC(=O)NCCN1C(=O)CC(SC[C@H](N)C(=O)O)C1=O)C(=O)O)C(C)C)C(C)(C)C)C(C)(C)c1ccccc1` (some centres unmarked) [Example MM9], the pIC50 is < 6.00.
Same read-out and setting: for `CN[C@H](C(=O)N[C@H](C(=O)N(C)[C@H](/C=C(\C)C(=O)N[C@@H](CC(=O)NCCN1C(=O)CC(SC[C@H](N)C(=O)O)C1=O)C(=O)O)C(C)C)C(C)(C)C)C(C)(C)c1ccccc1` (some centres unmarked) [Example MM10] the value was < 6.00; for `CN[C@H](C(=O)N[C@H](C(=O)N(C)[C@H](/C=C(\C)C(=O)N[C@H](CC(=O)O)C(=O)NCCN1C(=O)CC(SC[C@H](N)C(=O)O)C1=O)C(C)C)C(C)(C)C)C(C)(C)c1ccccc1` (some centres unmarked) [Example MM13], < 6.00; for `CN[C@H](C(=O)N[C@H](C(=O)N(C)[C@H](/C=C(\C)C(=O)N[C@@H](CC(=O)O)C(=O)NCCN1C(=O)CC(SC[C@H](N)C(=O)O)C1=O)C(C)C)C(C)(C)C)C(C)(C)c1ccccc1` (some centres unmarked) [Example MM14], < 6.00.
Same read-out and setting: for `CN[C@H](C(=O)N[C@H](C(=O)N(C)[C@H](/C=C(\C)C(=O)N[C@H](CCC(=O)NCCCN1C(=O)CC(SC[C@H](N)C(=O)O)C1=O)C(=O)O)C(C)C)C(C)(C)C)C(C)(C)c1ccccc1` (some centres unmarked) [Example MM16] the value was 6.06; for `CN[C@H](C(=O)N[C@H](C(=O)N(C)[C@H](/C=C(\C)C(=O)N[C@@H](CC(=O)NCCN1C(=O)CC(SC[C@H](N)C(=O)O)C1=O)C(=O)O)C(C)C)C(C)(C)C)C(C)(C)c1cn(C)c2ccccc12` (some centres unmarked) [Example MM19], 6.52; for `CN[C@H](C(=O)N[C@H](C(=O)N(C)[C@H](/C=C(\C)C(=O)N[C@H](CC(=O)NCCN1C(=O)CC(SC[C@H](N)C(=O)O)C1=O)C(=O)O)C(C)C)C(C)(C)C)C(C)(C)c1cn(C)c2ccccc12` (some centres unmarked) [Example MM20], 6.47.
For the molecule `CN[C@H](C(=O)N[C@H](C(=O)N(C)[C@H](/C=C(\C)C(=O)N[C@@H](CC(=O)O)C(=O)NCCN1C(=O)CC(SC[C@H](N)C(=O)O)C1=O)C(C)C)C(C)(C)C)C(C)(C)c1cn(C)c2ccccc12` (some centres unmarked) [Example MM21], the pIC50 was 6.33.
Turning to `CN[C@H](C(=O)N[C@H](C(=O)N(C)[C@H](/C=C(\C)C(=O)N[C@@H](CCC(=O)O)C(=O)NCCN1C(=O)CC(SC[C@H](N)C(=O)O)C1=O)C(C)C)C(C)(C)C)C(C)(C)c1cn(C)c2ccccc12` (some centres unmarked) [Example MM22], the pIC50 was 6.13.
On the same count and under the same terms, with `CN[C@H](C(=O)N[C@H](C(=O)N(C)[C@H](/C=C(\C)C(=O)N[C@H](CC(=O)O)C(=O)NCCN1C(=O)CC(SC[C@H](N)C(=O)O)C1=O)C(C)C)C(C)(C)C)C(C)(C)c1cn(C)c2ccccc12` (some centres unmarked) [Example MM24] the figure was 6.28; with `CN[C@H](C(=O)N[C@H](C(=O)N(C)[C@H](/C=C(\C)C(=O)N[C@H](CCC(=O)O)C(=O)NCCN1C(=O)CC(SC[C@H](N)C(=O)O)C1=O)C(C)C)C(C)(C)C)C(C)(C)c1cn(C)c2ccccc12` (some centres unmarked) [Example MM25], 6.26.
On the same count and under the same terms, with `CN[C@H](C(=O)N[C@H](C(=O)N(C)[C@H](/C=C(\C)C(=O)N[C@H](CCC(=O)N[C@@H](CCCCNC(=O)CCN1C(=O)CC(SC[C@H](N)C(=O)O)C1=O)C(=O)O)C(=O)O)C(C)C)C(C)(C)C)C(C)(C)c1cn(C)c2ccc(F)cc12` (some centres unmarked) [Example MM26] the figure was 6.42; with `CN[C@H](C(=O)N[C@H](C(=O)N(C)[C@H](/C=C(\C)C(=O)N[C@@H](CCCCNC(=O)CCCN1C(=O)CC(SC[C@H](N)C(=O)O)C1=O)C(=O)O)C(C)C)C(C)(C)C)C(C)(C)c1cn(C)c2ccccc12` (some centres unmarked) [Example MM27], < 6.00; with `C/C(=C\[C@H](C(C)C)N(C)C(=O)[C@@H](NC(=O)[C@H]1CCCCN1C(=O)CCN1C(=O)CC(SC[C@H](N)C(=O)O)C1=O)C(C)(C)C)C(=O)N[C@H](CCC(=O)O)C(=O)O` (some centres unmarked) [Example MM29], < 6.00.
For the molecule `CN[C@H](C(=O)N[C@H](C(=O)N(C)[C@H](/C=C(\C)C(=O)N[C@H](CCC(=O)NCCN1C(=O)CC(SC[C@H](N)C(=O)O)C1=O)C(=O)O)C(C)C)C(C)(C)C)C(C)(C)c1cccc(F)c1` (some centres unmarked) [Example MM31], the pIC50 was < 6.00.
Take `CNC(C(=O)N[C@H](C(=O)N(C)[C@H](/C=C(\C)C(=O)N[C@H](CCC(=O)NCCN1C(=O)CC(SC[C@H](N)C(=O)O)C1=O)C(=O)O)C(C)C)C(C)(C)C)C(C)(C)c1ccc(O)cc1` (some centres unmarked) [Example MM33]: the pIC50 was 7.44.
With `CN[C@H](C(=O)N[C@H](C(=O)N(C)[C@H](/C=C(\C)C(=O)N[C@H](CCC(=O)NCCN1C(=O)CC(SC[C@H](N)C(=O)O)C1=O)C(=O)O)C(C)C)C(C)(C)C)C(C)(C)c1ccc(C(=O)O)cc1` (some centres unmarked) [Example MM35], the pIC50 is < 6.00.
Still for that read-out and setting: with `CN[C@H](C(=O)N[C@H](C(=O)N(C)[C@H](/C=C(\C)C(=O)N[C@H](CCC(=O)NCCN1C(=O)CC(SC[C@H](N)C(=O)O)C1=O)C(=O)O)C(C)C)C(C)(C)C)C(C)(C)c1cccc(OC)c1` (some centres unmarked) [Example MM36] the figure was < 6.00.
Same read-out and setting: for `CN[C@H](C(=O)N[C@H](C(=O)N(C)[C@H](/C=C(\C)C(=O)N[C@H](CCC(=O)NCCN1C(=O)CC(SC[C@H](N)C(=O)O)C1=O)C(=O)O)C(C)C)C(C)(C)C)C(C)(C)c1cc(C)cc(C)c1` (some centres unmarked) [Example MM37] the value was < 6.00.

The same test, now with this note: in words, summary of Table 17.
Take `CN[C@H](C(=O)N[C@H](C(=O)N(C)[C@H](/C=C(\C)C(=O)NCCCCNC(=O)CCCCCN1C(=O)CC(SC[C@H](N)C(=O)O)C1=O)C(C)C)C(C)(C)C)C(C)(C)c1cn(C)c2ccccc12` (some centres unmarked) [Comparative Example compound, reference compound]: the “cellular toxicity to Karpas-299 cells” value is recorded as “strong cellular toxicity”.
